Literature values, collected in patent publication US8362077B2, “Chemical compositions for skin care emulsions and heavy duty hand cleansers” (Pibed Limited, priority 2008, dated 2013).
Like-named read-outs stand apart in the source and are kept apart here.

Legend:
Lactobacillus fermentum = conditions: flow cytometry
Staphylococcus aureus = conditions: low concentrations (0.5 to 2 mM)
Microsporum gypseum [1] = conditions: M. gypseum
Microsporum gypseum [2] = conditions: 10% in Vaseline petroleum jelly, topical, daily for 3 weeks

| MIC (Microsporum gypseum [1]; positive control) [µg/mL] | MIC (Microsporum gypseum [1]) | SMILES | Intracellular accumulation of ethidium bromide by live cells (Lactobacillus fermentum) | Susceptibility to ciprofloxacin, clindamycin, erythromycin, gentamicin, tetracycline and vancomycin (Staphylococcus aureus) | Histopathologic examination of skin tissues (Microsporum gypseum [2]) | Skin lesion scoring (Microsporum gypseum [2]) | Sensitization to polymyxin B (Escherichia coli) | Hair culture test (Microsporum gypseum [2]) |
| --- | --- | --- | --- | --- | --- | --- | --- | --- |
|  |  | CC(C)=CCC/C(C)=C/CC1CCCC1=O (centres unmarked) [apritone] | promoted the intracellular accumulation | enhanced the susceptibility |  |  |  |  |
|  |  | CC(C)=CCC[C@](C)(O)C1CC=C(C)CC1 (some centres unmarked) [bisabolol] | promoted the intracellular accumulation | enhanced the susceptibility |  |  |  |  |
| 4 to 16 |  | Clc1ccc(COC(Cn2ccnc2)c2ccc(Cl)cc2Cl)cc1 (centres unmarked) [econazole] |  |  |  |  |  |  |
|  | 0.01-0.03% | C=CCc1ccc(O)c(OC)c1 [eugenol] |  |  | lower degree of hyperkeratosis and inflammatory cell infiltration than the positive control | clinically effective at improving the lesion during the first week of application |  |  |
|  |  | CC(C)=CCCC(C)=CCCC(C)=CCO [farnesol] | promoted the intracellular accumulation |  |  |  | sensitized Escherichia coli to polymyxin B |  |
|  | 0.5-2% | C=CC(C)(O)CCC=C(C)CCC=C(C)C (centres unmarked) [nerolidol, 3,7,11-trimethyl-1,6,10-dodecatrien-3-ol] | promoted the intracellular accumulation | enhanced the susceptibility | lower degree of hyperkeratosis and inflammatory cell infiltration than the positive control | clinically effective at improving the lesion during the first week of application | sensitized Escherichia coli to polymyxin B | improved the skin lesions |
